In patent US20090075926A1, “METHOD FOR IDENTIFYING AND MANIPULATING CELLS” (priority 2006, published 2009):

Tests used:
[1] = target: T1, PSMGFR (MUC1*) peptide (Homo sapiens, UniProt P15941); assay: immunoprecipitation with histidine-tagged PSMGFR (MUC1*) peptide and western blot with anti-NM23; assay type: binding; settings: T47D cancer cell extracts
T1 sequence (P15941 1110-1154 limits assumed): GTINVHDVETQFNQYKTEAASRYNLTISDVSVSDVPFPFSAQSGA
Protocol: NM23 is the ligand that dimerizes and activates the MUC1* growth factor receptor. T47D cancer cell extracts were immunoprecipitated with magnetic beads that were pre-bound with histidine-tagged PSMGFR (MUC1*) peptide. The captured MUC1* binding species were then separated by SDS-PAGE. A western blot was then performed by probing the gel with an antibody that recognized NM23 H1.

[2] = test system: MUC1*-positive cancer cells; assay: growth of MUC1*-positive cancer cells with NM23; assay type: cell-based
[3] = test system: H9 human embryonic stem cells; assay: human embryonic stem cell growth / live-dead assay on matrigel; assay type: cell-based; settings: for live stem cells when free peptide is added to monovalent anti-MUC1*: monovalent anti-MUC1* plus free MUC1* peptide vs no peptide
Protocol: The details are that H9 low passage number hESCs were grown over matrigel for 7 days. To one set of wells was added bivalent anti-PSMGFR; to a second set was added the monovalent anti-PSMGFR; and to a third set buffer was added as a control. The results were that the addition of monovalent anti-PSMGFR caused stem cells to die within 8 hours. Cells immediately rounded up and within hours floated to the top of the media. […] Colonies were larger and in general had less differentiated cells.
Based on the findings that MUC1* mediates growth in cancer cells, experiments were devised to show whether or not stem cell growth could be manipulated by altering the dimerization state of MUC1*. A set number of human embryonic stem cells, H9p55, were plated onto matrigel. Cells were treated with either: 1) the bivalent anti-MUC1* antibody (rabbit polyclonal antibody raised the PSMGFR sequence), which dimerizes the MUC1* portion of the receptor; 2) the monovalent form of this same antibody, which binds to a single MUC1* receptor and prevents dimerization; or 3) nothing added as a control. The most striking result was that nearly all the cells, to which the monovalent anti-MUC1* antibody was added, died within 8 hours of the treatment, see FIGS. 25 and 26. […] A complete reversal of the monovalent antibody induced cell death was not expected since the free peptide could also compete with the cell surface MUC1* receptor for binding to the activating ligand. […] Therefore, the experiment was repeated but the analysis was done in a manner that resultant cell numbers could be quantitated.
A given number of cells H9p55 were added to each well. Again, the cells were treated with either bivalent anti-MUC1*, monovalent anti-MUC1* or no antibody as a control and then counted on a cell counting instrument. The graph of FIG. 32 summarizes the results. Again, treatment with the monovalent anti-MUC1* antibody caused cell death within 8 hours. […] The graph of FIG. 33 gives the details of this experiment. […]

[4] = test system: ERK2 phosphorylation (MAP kinase pathway) via PSMGFR region of MUC1; assay: western blot of ERK2 phosphorylation upon MUC1* dimerization and small molecule competition; assay type: cell-based; settings: competitor small molecule present with anti-PSMGFR
Description: FIG. 6 is a western blot of a competition experiment in which small molecules that bind to the PSMGFR region of MUC1 compete with anti-PSMGFR for binding to the site. […] The chemical formula for the competitor compound MN 9 referred to in this figure is
The western blot probe antibody is phospho-ERK2. FIG. 6 is a western blot of a competition experiment in which small molecules that bind to the PSMGFR region of MUC1 compete with anti-PSMGFR for binding to the site.

[5] = test system: hematopoietic stem cells (CD34++CD38−); settings: recombinant protein added; cited from earlier work
[6] = test system: hematopoietic progenitor cells (CD34+CD38+); settings: recombinant protein added; cited from earlier work
[7] = test system: HEL cells; settings: recombinant human protein as GST fusion; cited from earlier work
[8] = test system: shed MUC1; settings: breast cancer patients; cited from earlier work

Q: Which “binding to MUC1* peptide (immunoprecipitated species reacts with anti-NM23)” value [1] does the source give for “NM23: natural ligand that dimerizes and activates the MUC1* growth factor receptor” here?
A: ligand to MUC1

Q: And the “growth of MUC1*-positive cancer cells” value [2]?
A: stimulate the growth

Q: What does the source list for “MUC1* peptide: free peptide of the MUC1* (PSMGFR) extracellular sequence, competes with cell surface MUC1* (GTINVHDVETQFNQYKTEAASRYNLTISDVSVSDVPFPFSAQSGA; Fragment of MUC1 Growth Factor Receptor)”?
A: stem cell count on addition of MUC1* peptide ([3]; bFGF added, with or without bivalent anti-MUC1*): drop in the cell count; live stem cells when free peptide is added to monovalent anti-MUC1* [3]: more live cells; live stem cells when free peptide is added to monovalent anti-MUC1* ([3]; listed as MUC1* free peptide): increase in the number of live cells

Q: With O=C(c1ccc2ccccc2c1)N1CCc2c([nH]c3ccccc23)C1c1ccc(C(F)(F)F)cc1 (stereo not drawn) [Compound MN 9] as the molecule, how does the “ERK2 phosphorylation in competition with anti-PSMGFR” value [4] read?
A: ERK2 phosphorylation is inhibited

Q: Which “growth of hematopoietic stem cells” value [5] does the source give for NM23-H1: recombinant NM23-H1 protein here?
A: did not induce growth

Q: What about the “differentiation into granulocyte, macrophage, or granulocyte-macrophage colonies” value (“differentiation into granulocyte” below) [6] of the same molecule?
A: reduced the differentiation

Q: And the “erythroid differentiation of HEL cells by TGF-β1” value [7]?
A: block erythroid differentiation

B1: G-CSF: granulocyte colony stimulating factor (protein, UniProt P09919 31-207, looked up)
Granulocyte …: TPLGPASSLPQSFLLKCLEQVRKIQGDGAALQEKLVSECATYKLCHPEELVLLGHSLGIPWAPLSSCPSQALQLAGCLSQLHSGLFLYQGLLQALEGISPELGPTLDTLQLDVADFATTIWQQMEELGMAPALQPTQGAMPAFASAFQRRAGGVLVASHLQSFLEVSYRVLRHLAQP
Q: Which “serum levels of shed MUC1” value [8] does the source give for B1 here?
A: greatly increased

B2: NM23-H2: recombinant NM23-H2 protein (protein, UniProt P22392 1-152, looked up)
Nucleoside diphosphate kinase …: MANLERTFIAIKPDGVQRGLVGEIIKRFEQKGFRLVAMKFLRASEEHLKQHYIDLKDRPFFPGLVKYMNSGPVVAMVWEGLNVVKTGRVMLGETNPADSKPGTIRGDFCIQVGRNIIHGSDSVKSAEKEISLWFKPEELVDYKSCAHDWVYE
Q: For B2, which “growth of hematopoietic stem cells” value [5] is on record?
A: did not induce growth

Q: And the “differentiation into granulocyte” value [6]?
A: reduced the differentiation

Q: And the “erythroid differentiation of HEL cells by TGF-β1” value [7]?
A: block erythroid differentiation

B3: NM23-H3: recombinant NM23-H3 protein (protein, UniProt Q13232 1-169, looked up)
Nucleoside diphosphate kinase …: MICLVLTIFANLFPAACTGAHERTFLAVKPDGVQRRLVGEIVRRFERKGFKLVALKLVQASEELLREHYAELRERPFYGRLVKYMASGPVVAMVWQGLDVVRTSRALIGATNPADAPPGTIRGDFCIEVGKNLIHGSDSVESARREIALWFRADELLCWEDSAGHWLYE
Q: Which “growth of hematopoietic stem cells” value [5] does the source give for B3 here?
A: did not induce growth

Q: And the “differentiation into granulocyte” value [6]?
A: reduced the differentiation
